Consider three compounds from the NIST ThermoML archive (doi:10.1016/j.jct.2005.12.003).

Series [1] can be described thus: refractive index (Na D-line) (dimensionless). The note with it: 298.15 K; 101.33 kPa; Liquid; Standard Abbe refractometry.
The conditions of series [2]: Liquid; for mass density: 298.15 K, 101.33 kPa; for vapor or sublimation pressure: refractive and density measurements.

Molecules are shown by their SMILES. Numbers after ± are expanded uncertainties.

The term refractive index denotes a measure of how strongly the sample bends light. The mass density is the mass of a sample divided by its volume. Broadly, the vapor or sublimation pressure is the equilibrium pressure above the liquid or solid. Regarding `c1ccccc1` [benzene], the refractive index in series [1] is 1.49692 ± 0.00072. In addition, the mass density in series [2] is recorded as 873.6 ± 0.2 kg/m3. The “vapor or sublimation pressure” value in series [2] (353.25 K) amounted to 101.3 kPa.

Turning to `Clc1ccccc1` [chlorobenzene], the refractive index in series [1] is reported as 1.52176 ± 0.00075. Moreover, the mass density in series [2] is reported as 1100.8 ± 0.5 kg/m3. Also, in series [2] (404.82 K), the “vapor or sublimation pressure” value is reported as 101.3 kPa.

Regarding `C1CCCCC1` [cyclohexane], in series [1], the refractive index came out at 1.4232 ± 0.00072. Further, the mass density in series [2] was found to be 773.7 ± 0.3 kg/m3. In addition, the “vapor or sublimation pressure” value in series [2] (353.89 K) was found to be 101.3 kPa.
